Test results reported in publication PMC9653804, “Multifunctional Derivatives of Spiropyrrolidine Tethered Indeno-Quinoxaline Heterocyclic Hybrids as Potent Antimicrobial, Antioxidant and Antidiabetic Agents: Design, Synthesis, In Vitro and In Silico Approaches” (Molecules, 2022).
≈ marks a conversion by molar mass, not a printed value.

Legend:
[1] = system: Pseudomonas aeruginosa ATCC 27853; assay: Antimicrobial activity (MIC, MBC) against P. aeruginosa; format: cell-based; details: P. aeruginosa ATCC 27853; '-' = No activity
[2] = system: Candida albicans ATCC 90028; assay: Antifungal activity (MIC, MFC) against C. albicans; format: cell-based; details: C. albicans ATCC 90028, '-' = No activity; for MFC/MIC: fungicidal ≤ 4, fungistatic > 4; for MFC / MIC: Candida albicans, ATCC90028
[3] = Radical scavenging activity ABTS; details: for IC50: ABTS radical scavenging; for ABTS scavenging activity, fold higher than Trolox: relative to standard Trolox
Description: The ABTS assay was performed as previously described by Tuberoso et al.. ABTS^+ radical was generated by oxidation of ABTS with potassium persulfate. The blue–green ABTS was produced through the reaction between 2 mM ABTS and […] potassium persulfate in water. The mixture was left to stand in the dark for 12 to 16 h before use. The ABTS solution was diluted with methanol to an absorbance of 0.700 ± 0.005 at 734 nm. Then 2 mL of diluted ABTS solution was mixed with 100 μL of samples and absorbance was measured after 1 min incubation at room temperature. A standard curve was obtained by using Trolox as standard solution. The results were expressed as μM Trolox equivalent.
The mixture of 7 mmol/L aqueous ABTS solution with 2.45 mmol/L potassium persulfate solution constitutes a stable ABTS^+ stock solution that was allowed to stand in the dark and at room temperature for 12 to 16 h before use. A 1 mL sample of the diluted ABTS solution (adjusted to 0.7 ± 0.02 at […]) was added to 10 μL of each product. The absorbance was determined after 6 min. The percentage inhibition of the ABTS˙ radical was calculated from the following equation:% inhibition = (Abscontrol − Abstest)/Abscontrol × 100
Abs control: the control absorbance.
Abs test: the absorbance of the test sample after 6 min.

[4] = Ferric reducing power assay (FRAP)
[5] = system: Staphylococcus aureus ATCC 25923; assay: Antimicrobial activity (MIC, MBC) against S. aureus; format: cell-based; details: S. aureus ATCC 25923; for MBC/MIC: bactericidal ≤ 4, bacteriostatic > 4; for MIC: Staphylococcus aureus, ATCC25923, '-' = No activity
[6] = system: Escherichia coli ATCC 25922; assay: Antimicrobial activity (MIC, MBC) against E. coli; format: cell-based; details: E. coli ATCC 25922; '-' = No activity
[7] = DPPH free radical scavenging activity; details: DPPH radical scavenging
Description: DPPH, the stable artificial free radicals, has been widely used for the measurement of free radical scavenging capacity of the compounds in ethanol and aqueous systems. Briefly, 2 mL DPPH solution (0.2 mM, in 95% ethanol) was incubated with 2 mL different concentrations of compounds solution. Then, the reaction mixture was shaken and incubated in the dark for 40 min at room temperature. The absorbance was immediately recorded at 517 nm against ethanol with a spectrophotometer (Metash, model UV-5200, Shanghai Xiwen Biotech. Co., Ltd, Shanghai, China). The DPPH free radical scavenging rate was calculated using the equation:DPPH scavenging activity (%) = A0 − A1/A0 × 100 where A0 was the absorbance of the control reaction (containing all reagents except the tested compound), and A1 was the absorbance of the test reaction (containing all reagents with the tested compound). The percentage of DPPH radical scavenging activity was plotted against the sample concentration to acquire the IC50 value, defined as the concentration of sample necessary to cause 50% inhibition. Radical scavenging activity (RSA) was calculated from the IC50 value as the equation: RSA = pIC50 = −lg[IC50]. The smaller the IC50 value, the larger is the RSA value and the higher is the antioxidant activity.

[8] = system: Candida krusei ATCC 6258; assay: Antifungal activity (MIC, MFC) against C. krusei; format: cell-based; details: C. krusei ATCC 6258, '-' = No activity; for MFC / MIC: Pichia kudriavzevii, ATCC6258
[9] = system: Micrococccus luteus NCIMB 8166; assay: Antimicrobial activity (MIC, MBC) against M. luteus; format: cell-based; details: M. luteus NCIMB 8166; '-' = No activity

Structure (SMILES) | MBC/MIC [1] | MFC/MIC [2] | MFC [2] [mM] | MIC [2] [mM] | IC50 [3] [µM] | ABTS scavenging activity, fold higher than Trolox [3] | melting point [°C] | IC50 [4] [µM] | MBC/MIC [5] | MIC [5] [mM] | MBC/MIC [6] | IC50 [7] [µM] | MFC/MIC [8] | MFC [8] [mM] | MIC [8] [mM] | MBC/MIC [9]
CN1C(=O)CC2(C1=O)C(c1ccc(F)cc1)CN(C)C21c2ccccc2-c2nc3ccccc3nc21 (stereo not drawn) [5g, Spiro [2,11″]indeno-[1,2b]-quinoxaline-spiro-[3,3′]-N-methylsuccinimide-4-(4-fluorophenyl)hexahydro-1H-pyrrolidines] | 2 | 1 | 65 (≈ 31.1 mg/mL) | 65 (≈ 31.1 mg/mL) | 7.19 ± 0.11 | about 14 fold | 205 to 207 | 20.5 ± 0.6 | 16 | 16.2 (≈ 7.78 mg/mL) | 2 | 26 ± 0.5 | 1 | 32.5 (≈ 15.6 mg/mL) | 32.5 (≈ 15.6 mg/mL) | –
CN1C(=O)CC2(C1=O)C(c1ccc(Br)cc1)CN(C)C21c2ccccc2-c2nc3ccccc3nc21 (stereo not drawn) [5f, Spiro [2,11″]indeno-[1,2b]-quinoxaline-spiro-[3,3′]-N-methylsuccinimide-4-(4-bromophenyl)hexahydro-1H-pyrrolidines] | 2 | 1 | 57.7 (≈ 31.1 mg/mL) | 57.7 (≈ 31.1 mg/mL) | 18.1 ± 0.53 | ~6 fold | 200 to 202 | 7.93 ± 0.44 | 2 | – | 2 | 16.1 ± 0.39 | 1 | 57.7 (≈ 31.1 mg/mL) | 57.7 (≈ 31.1 mg/mL) | –
CN1C(=O)CC2(C1=O)C(c1ccc(O)c(Br)c1)CN(C)C21c2ccccc2-c2nc3ccccc3nc21 (stereo not drawn) [5l, Spiro [2,11″]indeno-[1,2b]-quinoxaline-spiro-[3,3′]-N-methylsuccinimide-4-(3-bromo-4-hydroxy-phenyl)hexahydro-1H-pyrrolidines] | 4 | 8 | – | 56.1 (≈ 31.1 mg/mL) | 15.2 ± 0.31 | – | 189 to 191 | 3.26 ± 0.45 | 16 | 28 (≈ 15.6 mg/mL) | 2 | 15.3 ± 0.37 | 1 | 28 (≈ 15.6 mg/mL) | 28 (≈ 15.6 mg/mL) | 2
Cc1c(C)c2c(c(C)c1O)CCC(C)(C(=O)O)O2 (stereo not drawn) [Trolox, reference compound] | – | – | – | – | 99.88 ± 0.31 | – | – | 41.9 ± 2.07 | – | – | – | 31.2 ± 3.67 | – | – | – | –
COc1ccc(C2CN(C)C3(c4ccccc4-c4nc5ccccc5nc43)C23CC(=O)N(C)C3=O)cc1OC (stereo not drawn) [5j, Spiro [2,11″]indeno-[1,2b]-quinoxaline-spiro-[3,3′]-N-methylsuccinimide-4-(3,4-dimethoxyphenyl)hexahydro-1H-pyrrolidines] | 2 | 2 | – | – | 11.56 ± 0.05 | – | 211 to 213 | 5.98 ± 0.17 | 32 | 14.9 (≈ 7.78 mg/mL) | 2 | 19.2 ± 0.19 | 1 | 59.8 (≈ 31.1 mg/mL) | 59.8 (≈ 31.1 mg/mL) | 2
C[C@@H]1[C@H](O)[C@@H](C)/C=C/C=C/C=C/C=C/C=C/C=C/C=C/[C@H](O[C@@H]2O[C@H](C)[C@@H](O)[C@H](N)[C@@H]2O)C[C@@H]2O[C@](O)(C[C@@H](O)C[C@@H](O)[C@H](O)CC[C@@H](O)C[C@@H](O)CC(=O)O[C@H]1C)C[C@H](O)[C@H]2C(=O)O [Amphotericin B, reference compound] | – | 1 | 5.41 (≈ 5 mg/mL) | 5.41 (≈ 5 mg/mL) | – | – | – | – | – | – | – | – | 1 | 5.41 (≈ 5 mg/mL) | 5.41 (≈ 5 mg/mL) | –
CN(C)[C@@H]1C(O)=C(C(N)=O)C(=O)[C@@]2(O)C(O)=C3C(=O)c4c(O)cccc4[C@@](C)(O)[C@H]3C[C@@H]12 [Tetracycline, reference compound] | 2 | – | – | – | – | – | – | – | 2 | – | 1 | – | – | – | – | 2
